Measured values: the supplement of paper PMC10307832

Columns and labels:
Experiment in all cases: relative viability (nuclei count vs DMSO), 5 days (fraction); higher = more cells survive
[1] = compound: C/C(=N\NC(=S)N1CCC1)/C2=CC=CC=N2
In short: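 Lung cancer cell lines were seeded into 1536-well plates, kept overnight at 37 °C and pinned with five library-drug doses (not always all listed) spaced by √10. After 5 days, nuclei were Hoechst-stained, imaged at 4× and counted with MetaXpress. Viability is treated-well nuclei over vehicle-well nuclei, taken as a median across plates. Plates needed control CV below 25% and at least one doubling.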

[2] = compound: C/C(=N\NC(=S)N1CCC1)/C2=CC=CC=N2 + COc1cccc2cc(-c3nc([C@H]4CC[C@H](C(=O)O)CC4)n4ncnc(N)c34)[nH]c12 [OSI-027] (partner 0.5 µM)
In short: (§1)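 Lung cancer cell lines were pin-tool dosed in 1536-well plates on the day after seeding, with either a lone drug or a fixed anchor-drug dose plus five library-drug doses (not always all listed) in √10 steps. Nuclei were counted on 4× images after 5 days. Relative viability is the ratio of treated-well to vehicle-well nuclei counts, with each value a median of duplicate plates.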

[3] = compound: C/C(=N\NC(=S)N1CCC1)/C2=CC=CC=N2 + COc1cc2c(Oc3ccc(NC(=O)C4(C(=O)Nc5ccc(F)cc5)CC4)cc3F)ccnc2cc1OCCCN1CCOCC1 [Foretinib] (partner 0.25 µM)
In short: as §1

[4] = compound: C/C(=N\NC(=S)N1CCC1)/C2=CC=CC=N2 + CC(=O)c1c(C)c2cnc(Nc3ccc(N4CCNCC4)cn3)nc2n(C2CCCC2)c1=O [Palbociclib] (partner 0.5 µM)
In short: as §1

Row | Cell Line | relative viability ([1]; 0.05 µM) | relative viability ([1]; 0.1581 µM) | relative viability ([1]; 0.5 µM) | relative viability ([1]; 1.581 µM) | relative viability ([1]; 5 µM) | relative viability ([2]; first compound 0.05 µM) | relative viability ([2]; first compound 0.1581 µM) | relative viability ([2]; first compound 0.5 µM) | relative viability ([2]; first compound 1.581 µM) | relative viability ([2]; first compound 5 µM) | relative viability ([3]; first compound 0.05 µM) | relative viability ([3]; first compound 0.1581 µM) | relative viability ([3]; first compound 0.5 µM) | relative viability ([3]; first compound 1.581 µM) | relative viability ([3]; first compound 5 µM) | relative viability ([4]; first compound 0.05 µM) | relative viability ([4]; first compound 0.1581 µM) | relative viability ([4]; first compound 0.5 µM) | relative viability ([4]; first compound 1.581 µM) | relative viability ([4]; first compound 5 µM)
1 | 201T | 0.432 | 0.443 | 0.353 | 0.345 | 0.309 | 0.402 | 0.21 | 0.201 | 0.166 | 0.134 | 0.213 | 0.209 | 0.19 | 0.181 | 0.177 | 0.27 | 0.351 | 0.307 | 0.213 | 0.205
2 | A-427 | 0.16 | 0.173 | 0.15 | 0.144 | 0.156 | 0.172 | 0.154 | 0.135 | 0.165 | 0.125 | 0.146 | 0.185 | 0.172 | 0.122 | 0.124 | 0.194 | 0.224 | 0.205 | 0.174 | 0.181
3 | ABC-1 | 0.38 | 0.303 | 0.245 | 0.259 | 0.361 | 0.257 | 0.191 | 0.239 | 0.226 | 0.2 | 0.13 | 0.243 | 0.197 | 0.207 | 0.208 | 0.344 | 0.412 | 0.328 | 0.239 | 0.275
4 | BEN | 0.278 | 0.237 | 0.276 | 0.23 | 0.227 | 0.206 | 0.142 | 0.166 | 0.183 | 0.202 | 0.17 | 0.204 | 0.175 | 0.171 | 0.205 | 0.346 | 0.332 | 0.336 | 0.283 | 0.313
5 | CAL-12T | 0.197 | 0.181 | 0.16 | 0.149 | 0.133 | 0.133 | 0.126 | 0.145 | 0.105 | 0.147 | 0.184 | 0.21 | 0.146 | 0.161 | 0.138 | 0.0958 | 0.145 | 0.131 | 0.109 | 0.122
6 | COR-L23 | 0.148 | 0.133 | 0.138 | 0.113 | 0.102 | 0.116 | 0.111 | 0.108 | 0.0709 | 0.0853 | 0.147 | 0.132 | 0.14 | 0.0938 | 0.0923 | 0.0993 | 0.12 | 0.0934 | 0.0924 | 0.0839
7 | COR-L 105 | 0.287 | 0.364 | 0.342 | 0.245 | 0.292 | 0.251 | 0.329 | 0.338 | 0.255 | 0.248 | 0.33 | 0.312 | 0.382 | 0.233 | 0.268 | 0.353 | 0.358 | 0.349 | 0.316 | 0.318
8 | Calu-6 | 0.118 | 0.147 | 0.154 | 0.12 | 0.14 |  |  |  |  |  | 0.0699 | 0.0625 | 0.0749 | 0.0997 | 0.0865 |  |  |  |  | 
9 | ChaGo-K-1 | 0.204 | 0.227 | 0.2 | 0.18 | 0.186 | 0.15 | 0.168 | 0.177 | 0.163 | 0.165 | 0.217 | 0.24 | 0.211 | 0.176 | 0.171 | 0.144 | 0.408 | 0.144 | 0.132 | 0.148
10 | EBC-1 | 0.169 | 0.214 | 0.169 | 0.127 | 0.154 |  |  |  |  |  | 0.0973 | 0.107 | 0.131 | 0.0785 | 0.0979 |  |  |  |  | 
11 | EKVX | 0.129 | 0.138 | 0.118 | 0.153 | 0.161 | 0.12 | 0.122 | 0.11 | 0.111 | 0.146 | 0.0957 | 0.192 | 0.118 | 0.104 | 0.984 | 0.13 | 0.149 | 0.109 | 0.141 | 0.158
12 | EMC-BAC-2 | 0.215 | 0.237 | 0.219 | 0.189 | 0.207 | 0.199 | 0.22 | 0.233 | 0.189 | 0.209 | 0.209 | 0.261 | 0.246 | 0.183 | 0.237 | 0.274 | 0.324 | 0.261 | 0.223 | 0.253
13 | EPLC-272H | 0.163 | 0.161 | 0.124 | 0.0926 | 0.136 | 0.159 | 0.13 | 0.138 | 0.103 | 0.112 | 0.0785 | 0.069 | 0.1 | 0.0473 | 0.0779 | 0.117 | 0.138 | 0.155 | 0.056 | 0.0855
14 | H3255 | 0.316 | 0.331 | 0.273 | 0.254 | 0.274 | 0.364 | 0.293 | 0.25 | 0.254 | 0.29 | 0.241 | 0.245 | 0.241 | 0.242 | 0.29 | 0.259 | 0.278 | 0.304 | 0.259 | 0.266
15 | HARA | 0.193 | 0.21 | 0.138 | 0.143 | 0.138 | 0.0966 | 0.0611 | 0.0659 | 0.0562 | 0.0621 | 0.207 | 0.307 | 0.09 | 0.0777 | 0.0635 | 0.188 | 0.133 | 0.233 | 0.139 | 0.164
16 | HCC-15 | 0.0583 | 0.0886 | 0.0939 | 0.094 | 0.0906 | 0.079 | 0.0907 | 0.0888 | 0.0899 | 0.0898 | 0.131 | 0.0633 | 0.115 | 0.0865 | 0.0901 | 0.184 | 0.268 | 0.114 | 0.0996 | 0.091
17 | HCC-44 | 0.351 | 0.279 | 0.299 | 0.246 | 0.24 | 0.183 | 0.221 | 0.261 | 0.195 | 0.297 |  |  |  |  |  | 0.976 | 0.886 | 0.563 | 0.556 | 0.451
18 | HCC-78 | 0.459 | 0.472 | 0.355 | 0.232 | 0.234 | 0.299 | 0.354 | 0.332 | 0.237 | 0.23 | 0.488 | 0.451 | 0.367 | 0.237 | 0.235 | 0.355 | 0.368 | 0.273 | 0.329 | 0.323
19 | HCC-366 | 0.0382 | 0.0453 | 0.0381 | 0.0627 | 0.0401 | 0.0452 | 0.0275 | 0.0339 | 0.0481 | 0.0279 | 0.127 | 0.346 | 0.0579 | 0.0562 | 0.0285 | 0.065 | 0.0358 | 0.0237 | 0.0228 | 0.026
20 | HCC-827 | 0.44 | 0.359 | 0.316 | 0.275 | 0.205 | 0.288 | 0.281 | 0.156 | 0.176 | 0.168 | 0.538 | 0.583 | 0.239 | 0.223 | 0.17 | 0.272 | 0.229 | 0.173 | 0.166 | 0.144
21 | HOP-62 | 0.111 | 0.0963 | 0.114 | 0.11 | 0.114 | 0.104 | 0.0907 | 0.101 | 0.111 | 0.102 | 0.21 | 0.243 | 0.114 | 0.116 | 0.112 | 0.0827 | 0.234 | 0.0724 | 0.107 | 0.0858
22 | IA-LM | 0.0692 | 0.0771 | 0.0669 | 0.0644 | 0.0517 |  |  |  |  |  | 0.0694 | 0.0465 | 0.0654 | 0.0441 | 0.0339 |  |  |  |  | 
23 | LC-2-ad | 0.209 | 0.242 | 0.217 | 0.163 | 0.231 | 0.282 | 0.295 | 0.277 | 0.179 | 0.227 | 0.225 | 0.309 | 0.267 | 0.227 | 0.235 | 0.224 | 0.196 | 0.192 | 0.172 | 0.202
24 | LCLC-97TM1 | 0.0886 | 0.109 | 0.0593 | 0.0801 | 0.0822 | 0.111 | 0.175 | 0.185 | 0.138 | 0.158 | 0.511 | 0.752 | 0.193 | 0.12 | 0.155 | 0.0948 | 0.223 | 0.0874 | 0.0867 | 0.0722
25 | NCI-H596 | 0.307 | 0.311 | 0.257 | 0.222 | 0.263 | 0.259 | 0.253 | 0.281 | 0.226 | 0.263 | 0.461 | 0.725 | 0.208 | 0.199 | 0.272 |  |  |  |  | 
26 | NCI-H1299 | 0.1 | 0.12 | 0.186 | 0.185 | 0.145 |  |  |  |  |  | 0.107 | 0.133 | 0.191 | 0.187 | 0.117 |  |  |  |  | 
27 | NCI-H1563 | 0.62 | 0.6 | 0.504 | 0.538 | 0.522 | 0.5 | 0.541 | 0.506 | 0.541 | 0.542 | 0.543 | 0.63 | 0.576 | 0.529 | 0.581 |  |  |  |  | 
28 | NCI-H1648 | 0.317 | 0.278 | 0.25 | 0.317 | 0.304 | 0.309 | 0.279 | 0.351 | 0.314 | 0.307 |  |  |  |  |  | 0.258 | 0.301 | 0.322 | 0.352 | 0.337
29 | NCI-H1703 | 0.0684 | 0.0887 | 0.112 | 0.126 | 0.161 |  |  |  |  |  | 0.163 | 0.142 | 0.163 | 0.206 | 0.246 |  |  |  |  | 
30 | NCI-H1792 | 0.362 | 0.234 | 0.227 | 0.184 | 0.134 | 0.417 | 0.301 | 0.25 | 0.248 | 0.205 |  |  |  |  |  | 0.426 | 0.398 | 0.363 | 0.272 | 0.259
